Test results from patent US5653957A, “Halogenated sulfidohydroboranes for nuclear medicine and boron neutron capture therapy” (Associated Universities, Inc., priority 1996, dated 1997).

Assays:
[1] = tested on: brain tumors; settings: mouse, in vivo; cited from earlier work
[2] = tested on: mice; assay: Subacute toxicity in mice judged by hematological and chemical tests of the blood 5 days after i.p. injection; format: in vivo, female mice (BNL Hale-Stoner strain)
Procedure: C) 0.9% NaCl in water (saline) (7 mice).
Injection volumes were all 0.015 mL/gbw.
Inadvertently,the BSSB group (Group A) received 17 μg ^10 B/gbw, only about one-third of the intended boron dose, 50 μg/gbw. Nevertheless, it is useful to compare the subacute toxicity of a relatively high dose of a substance, IBSSB, which had never before been tested in an animal, with that of its parent compound, BSSB, which is known to be non-lethal at about 35 μg B/gbw, i.e., twice the lower of the two boron doses used See Slatkin et al., "Boron Uptake in Melanoma, Cerebrum and Blood from Na2 B12 H11 SH and Na4 B24 H22 S2 Administered to Mice", Biochem. Pharm., 35, 1771 (1986).
See Miura et al., "Biodistribution and Toxicity of 2,4-Divinyl-nido-carboranyldeuterophorphyrin IX in Mice". Biochem. Pharm., 43, 467 (1992). It therefore appears that the periodinated borane is not more toxic than the non-iodinated borane.

[3] = tested on: mice; settings: at about 35 μg B/gbw; cited from earlier work
[4] = mouse, in vivo
Procedure: Three groups of female mice (BNL Hale-Stoner strain) were given a single intraperitoneal (i.p.) injection of:
Injection volumes were all 0.015 mL/gbw. Five days after the injection, mice were euthanized by deep halothane inhalation anesthesia. Thoracotomy was performed, and about 0.7-0.9 mL blood was removed through the right ventricle. Hematological and chemical analyses were performed on blood specimens from each mouse.
(mg/dL), blood urea nitrogen [BUN] (mg/dL), blood creatinine [BCR] (mg/dL) aspartate transaminase [AST] (U/L), alanine transaminase [ALT] (U/L), alkaline phosphatase [ALP] (U/L), creatine phosphokinase [CPK] (U/L), total protein [TPR] (g/dL), albumin [ALB] (g/dL), calcium [CA] (mg/dL), chloride [CHL] (meg/L), inorganic phosphorus [P] (mg/dL), potassium [K] (meg/L), and sodium [SOD] (meg/L) .

In the case of BSSB, the “accumulation in brain tumors vs the monomeric form” value [1] is listed as “more readily accumulated in brain tumors than the monomeric form”, the “fourteen chemical and thirteen hematological tests, BSSB (Group A) vs IBSSB (Group B)” value ([2]; mouse, in vivo) is listed as “no significant differences between the two groups” and the lethality [3] is listed as “non-lethal”.
With “periodinated dimeric sulfidohydrododecaborane [IBSSB]” the “alanine transaminase [ALT]” value [4] was 22 U/L, the “albumin [ALB]” value [4] was 3.3 g/dL and the “alkaline phosphatase [ALP]” value [4] was 110 U/L. The “aspartate transaminase [AST]” value [4] was 44 U/L, the “blood creatinine [BCR]” value [4] was 0.5 mg/dL and the “blood urea nitrogen [BUN]” value [4] was 28 mg/dL. The “calcium [CA]” value [4] was 11.5 mg/dL, the “chloride [CHL]” value [4] was 116 meg/L and the “creatine phosphokinase [CPK]” value [4] was 35 U/L. The “glucose [GLU]” value [4] was 278 mg/dL, the “inorganic phosphorus [P]” value [4] was 9.9 mg/dL and the “potassium [K]” value [4] was 7.1 meg/L. The “sodium [SOD]” value [4] was 154 meg/L, the “total protein [TPR]” value [4] was 5.9 g/dL and the “fourteen chemical and thirteen hematological tests, BSSB (Group A) vs IBSSB (Group B)” value ([2]; mouse, in vivo) was “no significant differences between the two groups”. For the same substance, the hepatotoxicity ([2]; mouse, in vivo) was “may be slightly hepatotoxic to mice”, the “other differences between mice in groups B and C” value ([2]; mouse, in vivo) was “No other differences were noted” and the significant toxicity ([2]; mouse, in vivo) was “no evidence of significant toxicity”. For the same substance, the “toxicity judged by hematological and chemical tests of the blood, vs BSSB” value ([2]; single i.p. 50 μg B/gbw, vs three-fold less BSSB, 5 days later) was “only minimally more toxic”.
